Patent US10905683B2, “Compositions and uses of amidine derivatives” (BIOCRYST PHARMACEUTICALS, INC., priority 2014, dated 2021)

What was measured:
plasma kallikrein = target: T1, plasma kallikrein (Homo sapiens, UniProt P03952); experiment: Plasma kallikrein activity in subject samples, contact activation assay with fluorogenic substrate; type: in vivo
T1 construct: normal levels of C1INH present in healthy subject plasma samples; from tissue; host or cells: plasma samples of healthy human subjects
T1 sequence (P03952 391-638 limits assumed): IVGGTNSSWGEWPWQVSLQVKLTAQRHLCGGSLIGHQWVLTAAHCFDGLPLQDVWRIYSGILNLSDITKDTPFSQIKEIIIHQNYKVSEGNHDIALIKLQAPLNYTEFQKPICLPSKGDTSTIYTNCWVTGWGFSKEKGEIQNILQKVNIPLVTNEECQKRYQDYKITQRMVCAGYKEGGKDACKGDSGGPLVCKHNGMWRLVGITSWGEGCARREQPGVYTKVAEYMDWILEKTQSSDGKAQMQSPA
T1 sequence (P03952 20-390 partner limits assumed): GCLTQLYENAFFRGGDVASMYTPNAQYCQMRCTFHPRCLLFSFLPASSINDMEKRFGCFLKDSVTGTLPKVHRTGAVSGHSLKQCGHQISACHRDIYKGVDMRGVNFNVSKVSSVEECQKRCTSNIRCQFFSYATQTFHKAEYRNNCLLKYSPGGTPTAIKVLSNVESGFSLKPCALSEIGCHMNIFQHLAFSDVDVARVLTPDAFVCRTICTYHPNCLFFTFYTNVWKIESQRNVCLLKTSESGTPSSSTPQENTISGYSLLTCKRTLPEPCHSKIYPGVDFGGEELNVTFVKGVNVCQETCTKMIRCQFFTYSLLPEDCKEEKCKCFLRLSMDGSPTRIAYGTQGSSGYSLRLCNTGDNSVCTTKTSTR
Method: Plasma kallikrein activity was assessed in subject samples with an exploratory contact activation assay using a fluorogenic artificial substrate for kallikrein. In this assay, the contact pathway is activated by addition of ellagic acid, and amidolytic activity is measured. Results are expressed as percent inhibition compared to subject baseline samples and reflect inhibition additional to that resulting from the activity of normal levels of C1INH present in healthy subject plasma samples. Analysis of plasma kallikrein activity following single doses of the compound of Example 1 was performed through 12 hours postdose. […] The time course of inhibition generally followed the plasma pharmacokinetics of the compound. The greatest effect was seen around the time of Cmax. Plasma kallikrein inhibition largely returned to baseline at 12 hours postdose, when plasma concentrations of the compound of Example 1 were low (generally <10 ng/mL).
Plasma kallikrein activity profiles were measured in Part 2 subjects on day 7 of dosing and the results were expressed as percent inhibition compared to the activity present in the Day 1 predose plasma sample. […] Kallikrein inhibition was observed through the last dosing interval on day 7 compared to placebo (p<0.0001).

[1] = Phase 1 safety and tolerability; type: in vivo, human; settings: healthy subjects
Method: A two-part, Phase 1, double-blind, placebo-controlled study of the compound of Example 1 was conducted in healthy subjects. Part 1 of the study assessed the safety, tolerability and the pharmacokinetic (PK) and pharmacodynamic (PD) properties of the compound of Example 1 following a single ascending dose. Subjects were enrolled in five sequential cohorts and received the compound of Example 1 (50 mg, 125 mg, 250 mg, 500 mg or 1000 mg; n=6/cohort) or placebo (n=2/cohort) under fasting conditions. To enable a food-effect assessment on exposure, subjects enrolled in Cohort 4 (500 mg or placebo) subsequently received a second dose of the compound of Example 1 following a high-fat breakfast.
Part 2 of the study evaluated the safety, tolerability, PK, and PD of multiple ascending doses of the compound of Example 1. Twelve subjects were administered a 7-day course of the compound of Example 1 (n=10 subjects/cohort received the API and n=2 subjects/cohort received matching placebo) according to the following dose regimens: 100 mg of the compound of Example 1 or placebo every 8 hours (q8h) in Cohort 1; 200 mg of the compound of Example 1 or placebo q8h in Cohort 2; 400 mg of the compound of Example 1 or placebo q8h in Cohort 3 and 800 mg of the compound of Example 1 or placebo q8h in Cohort 4.

[2] = Relative bioavailability crossover study, soft v. hard gelatin capsules and food effect; type: in vivo, human
Method: A single dose, randomized, 3-period crossover study was conducted to evaluate the relative bioavailability of the compound of Example 1 formulated as a soft gelatin capsule to the compound of Example 1 formulated as a hard gelatin capsule and to determine the effect of food on the pharmacokinetics of the compound of Example 1. The goals of this study were to ascertain the relative bioavailability and pharmacokinetics of the compound of Example 1 in soft gelatin capsules to hard gelatin capsules when administered following an overnight fast in healthy subjects. In addition, the study estimated the effect of a high-fat meal upon the pharmacokinetics of the compound of Example 1 following single dose administration of 400 mg of the compound of Example 1 in a soft gelatin capsules to healthy subjects. Hard and soft gelatin capsules were prepared as in Example 8 and 9, respectively, below.
The study was a single-dose, open-label, randomized, 3-way cross-over design. During each treatment period, eighteen subjects will receive a single dose of one of the following treatments in a randomized sequence:
Treatment A: BCX4161 400 mg as 4×100 mg hard gelatin capsules following an overnight fast
Treatment B: BCX4161 400 mg as 4×100 mg soft gelatin capsules following an overnight fast
Treatment C: BCX4161 400 mg as 4×100 mg soft gelatin capsules following a high fat meal […]

[3] = Stability and photostability of formulations
Method: This is a standard practice in the pharmaceutical industry in order to accelerate any chemical reactions that may occur due to environmental conditions (temperature, oxygen, light). […] If the stability data from the stress studies indicates a potential stability challenge, then further studies are required to identify the stability issue and resolve it.
Initial stability studies were conducted under accelerated conditions. […] Several antioxidants were identified for study. These antioxidants are pharmaceutically acceptable for use in human oral dosage forms and are compatible with the gelatin composition in a soft gelatin capsule.
Stability studies were performed with formulations that were protected from light and formulations exposed to light.

[4] = Solubility with cyclodextrins and co-agents; type: physicochemical; settings: for solubility: aqueous with cosolvent or surfactant or cyclodextrin, thermodynamic from solid
Method: Additional solubility studies were undertaken using cyclodextrins, including α-cyclodextrin and a polyanionic β-cyclodextrin derivative with a sodium sulfonate salt separated from the lipophilic cavity by a butyl ether or sulfobutylether spacer group) (referred to herein as Captisol) in combination with a variety of co-agents.
Test samples were prepared with the indicated cyclodextrins and the compound of Example 1, both with and without additional agents. The test solutions were sonicated in a Fisher model 55 dismembrator (small probe) at its maximum setting of 5 for 90 seconds. The samples were rotated overnight at room temperature to allow equilibration. Quantitation was performed by comparison of the concentrations of the resulting solution of the compound 1 to a single point calibration curve using a solution of the reference standard.

## C=Cc1cc(C(=O)Nc2ccc(C(=N)N)cc2)c(-c2ccc(C(=O)NCC3CC3)nc2C(=O)O)cc1OC [Example 1, 3-[2-(4-carbamimidoyl-phenylcarbamoyl)-5-methoxy-4-vinyl-phenyl]-6-(cyclopropylmethyl-carbamoyl)-pyridine-2-carboxylic acid]
Plasma kallikrein; beginning and end of the dosing interval on Day 7, two highest dose cohorts (400, 800 mg q8h), FIG. 11
  Kallikrein inhibition compared to Day 1 predose: 30-40%
Plasma kallikrein; single doses of 50-250 mg
  change of plasma kallikrein activity in comparison to placebo: modest but real changes
[1]; Part 1 (50-1000 mg single) and Part 2 (100-800 mg q8h, 7 days)
  safety and tolerability: generally safe and well tolerated
[1]; Part 1 and Part 2
  dose-limiting adverse events: no dose-limiting adverse events
  serious adverse events: no serious adverse events
[2]; 400 mg single dose, fasting
  geometric mean Cmax, soft gelatin capsules as compared to hard gelatin capsules: approximately 80%
[2]; formulated in a soft gelatin capsule
  bioavailability: good bioavailability
[3]; combined with candidate formulations, exposed to light, oxygen and elevated temperatures
  chemical stability under accelerated conditions: underwent degradation
[3]; exposed to ultraviolet (UV) or white (CW) light
  photostability: demonstrated photodegradation
[4]; Captisol 150 mM with DMSO 10%, Captisol 150 mM, DMSO 10%
  solubility: 3980 µg/mL
[4]; Captisol 150 mM with ethanol 10%, Captisol 150 mM, Ethanol 10%
  solubility: 3550 µg/mL
[4]; Captisol 150 mM with propylene glycol 10%, Captisol 150 mM, Propylene glycol 10%
  solubility: 3300 µg/mL
[4]; Captisol 150 mM with sodium dodecyl sulphate 100 mg, Captisol 150 mM, Sodium dodecyl sulphate 100 mg
  solubility: 240 µg/mL
[4]; Captisol (sulfobutylether β-cyclodextrin) solution, Captisol 150 mM, no co-solvent
  solubility: 7610 µg/mL
[4]; Captisol solution with co-agent, Captisol 150 mM, HPMC E-5 0.25%
  solubility: 4160 µg/mL
[4]; Captisol solution with co-agent, Captisol 150 mM, Polyethylene glycol 400 10%
  solubility: 5460 µg/mL
[4]; with and without co-agents
  solubility in cyclodextrins: not soluble in cyclodextrins
[4]; α-cyclodextrin 150 mM with DMSO 10%, α-cyclodextrin 150 mM, DMSO 10%
  solubility: 11100 µg/mL
[4]; α-cyclodextrin 150 mM with ethanol 10%, α-cyclodextrin 150 mM, Ethanol 10%
  solubility: 270 µg/mL
[4]; α-cyclodextrin 150 mM with propylene glycol 10%, α-cyclodextrin 150 mM, Propylene glycol 10%
  solubility: 4980 µg/mL
[4]; α-cyclodextrin solution with co-agent, α-cyclodextrin 150 mM, HPMC E-5 0.25%
  solubility: 9950 µg/mL
[4]; α-cyclodextrin solution with co-agent, α-cyclodextrin 150 mM, Polyethylene glycol 400 10%
  solubility: 5000 µg/mL
[4]; α-cyclodextrin solution with co-agent, α-cyclodextrin 150 mM, Sodium dodecyl sulphate 100 mg
  solubility: 10000 µg/mL
[4]; α-cyclodextrin solution, α-cyclodextrin 150 mM, no co-solvent
  solubility: 10000 µg/mL
